According to US10155021B2, “Antimicrobial 4-oxoquinolizines” (Emergent Product Development Gaithersburg Inc., priority 2011, dated 2018):
≈ marks a conversion by molar mass, not a printed value. Where two headings read alike, the source gives them in different places.

What was measured:
A. baumannii J2 = assay: Preliminary MBC without and with sub-inhibitory polymyxin B (Example 4); type: cell-based, Acinetobacter baumannii; details: Acinetobacter baumannii, J2, A. baumannii J2, without polymyxin B, preliminary MBC, read-out: MBC without PB
P. aeruginosa 1388-3-02 = assay: MIC, panel of quinolone-resistant strains (CLSI); type: cell-based; details: Pseudomonas aeruginosa, 1388302; CIP R, POL R
[1] = system: Acinetobacter spp. H064200250; assay: MIC determination for Acinetobacter strains (Example 3); type: cell-based, Acinetobacter sp.; details: LEV R, CIP R, MRP R, IMP I
Klebsiella ssp KPC-3 = assay: MIC, panel of quinolone-resistant strains (CLSI); type: cell-based, Klebsiella spp; details: KPC3, CIP R, ESBL
A. baumannii A489 [2] = assay: MIC without and with sub-inhibitory polymyxin B (Example 4); type: cell-based, Acinetobacter baumannii; details: Acinetobacter baumannii, A489, A. baumannii A489, without polymyxin B, read-out: MIC without PB
A. baumannii A329 [3] = assay: MIC determination for Acinetobacter strains (Example 3); type: cell-based; details: LEV R, CIP R, MRP R, IMP R, AMK R, TET R
A. baumannii A329 [4] = assay: MIC without and with sub-inhibitory polymyxin B (Example 4); type: cell-based, Acinetobacter baumannii; details: Acinetobacter baumannii
A. baumannii A473 [5] = assay: Preliminary MBC without and with sub-inhibitory polymyxin B (Example 4); type: cell-based, Acinetobacter baumannii; details: Acinetobacter baumannii, A473, A. baumannii A473, without polymyxin B, read-out: MBC without PB
A. baumannii A401 [6] = assay: as above; type: cell-based, Acinetobacter baumannii; details: Acinetobacter baumannii, A401, A baumannii A 401, without polymyxin B, preliminary MBC, read-out: MBC without PB
[7] = system: Acinetobacter sp. (H064200250); assay: as above; type: cell-based; details: Acinetobacter, without polymyxin B, preliminary MBC, read-out: MBC without PB
How it was run: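 Read-out: the minimum concentration at which colonies were reduced by ca. 90% relative to positive control, usually seen as isolated colonies or a clear plate. Plates had been kept 18-20 hours at 37° C beforehand.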

A. baumannii A473 [8] = assay: MIC without and with sub-inhibitory polymyxin B (Example 4); type: cell-based, Acinetobacter baumannii; details: Acinetobacter baumannii, A473, A. baumannii A473, without polymyxin B, read-out: MIC without PB
Pseudomonas ssp PER-1 = assay: MIC, panel of quinolone-resistant strains (CLSI); type: cell-based, Pseudomonas spp; details: PER1, CIP R, ESBL
A. baumannii A489 [9] = assay: Preliminary MBC without and with sub-inhibitory polymyxin B (Example 4); type: cell-based, Acinetobacter baumannii; details: Acinetobacter baumannii, A489, A. baumannii A489, without polymyxin B, read-out: MBC without PB
[10] = system: Acinetobacter sp. (H064200250); assay: MIC without and with sub-inhibitory polymyxin B (Example 4); type: cell-based; details: Acinetobacter, without polymyxin B
A. baumannii A472 [11] = assay: as above; type: cell-based, Acinetobacter baumannii; details: for MIC: Acinetobacter baumannii, A472, A. baumannii A472, without polymyxin B, read-out: MIC without PB
A. baumannii A401 [12] = assay: as above; type: cell-based, Acinetobacter baumannii; details: for MIC: Acinetobacter baumannii, A401, A baumannii A 401, without polymyxin B, read-out: MIC without PB
E. coli 2906 = assay: MIC, panel of quinolone-resistant strains (CLSI); type: cell-based; details: Escherichia coli, CIP R
P. aeruginosa 143-3-03 = assay: MIC, panel of quinolone-resistant strains (CLSI); type: cell-based; details: Pseudomonas aeruginosa, 143303; CIP I, POL R
A. baumannii A472 [13] = assay: MIC determination for Acinetobacter strains (Example 3); type: cell-based; details: LEV R, CIP R, MRP I, IMP I, AMK R, TET R
A. baumannii A329 [14] = assay: Preliminary MBC without and with sub-inhibitory polymyxin B (Example 4); type: cell-based, Acinetobacter baumannii; details: Acinetobacter baumannii, A329, A. baumannii A329, without polymyxin B, read-out: MBC without PB
A. baumannii A390 = assay: as above; type: cell-based, Acinetobacter baumannii; details: Acinetobacter baumannii, A390, A. baumannii A390; without polymyxin B; 2nd experiment; preliminary MBC; read-out: MBC without PB
A. baumannii A472 [15] = assay: as above; type: cell-based, Acinetobacter baumannii; details: Acinetobacter baumannii, A472, A. baumannii A472, without polymyxin B, 2nd experiment, read-out: MBC without PB
[16] = system: resistant strains of A. baumannii and one strain of Acinetobacter sp.; assay: MIC without and with sub-inhibitory polymyxin B, whole panel / MIC ranges (Example 4; also strains not listed separately); type: cell-based; details: Acinetobacter baumannii
[17] = A329, A. baumannii A329, without polymyxin B, 1st experiment, read-out: MIC without PB
[18] = A329, A. baumannii A329, without polymyxin B, 2nd experiment, visual reading, read-out: MIC without PB
[19] = Acinetobacter spp. H064200250 (OXA51), 2nd experiment
[20] = Acinetobacter spp. H064200250, 1st experiment
[21] = Acinetobacter spp. H064200250 (OXA51), 2nd experiment, visual reading, read-out: MIC without PB
[22] = Acinetobacter spp. H064200250, 1st experiment, read-out: MIC without PB

Work on `Cc1c(-c2cc(Cl)c(N)c(Cl)c2)ccn2c(=O)c(C(=O)O)cc(C3CC3)c12` [Compound 3, 8-(3,5-dichloro-4-amino-phenyl)-1-cyclopropyl-9-methyl-4-oxo-quinolizine-3-carboxylic acid] yielded an MBC (A. baumannii J2; 2nd experiment) of 32 mg/L (≈ 79.4 µM), an MBC (A. baumannii J2; 1st experiment) of 8 mg/L (≈ 19.8 µM) and an MIC (P. aeruginosa 1388-3-02) of 8 mg/L (≈ 19.8 µM). It also gave an MIC [1] of 8 mg/L (≈ 19.8 µM), an MIC (Klebsiella ssp KPC-3) of 8 mg/L (≈ 19.8 µM) and an MIC (A. baumannii A489 [2]; 1st experiment) of 4 mg/L (≈ 9.92 µM). For the same molecule, the MIC (A. baumannii A489 [2]; 2nd experiment, visual reading) was 4 mg/L (≈ 9.92 µM), the MIC (A. baumannii A329 [3]) was 16 mg/L (≈ 39.7 µM) and the MIC (A. baumannii A329 [4]; [17]) was 16 mg/L (≈ 39.7 µM). For the same molecule, the MIC (A. baumannii A329 [4]; [18]) was 16 mg/L (≈ 39.7 µM), the MIC (A. baumannii A329 [4]; A329, read-out: MIC +0.06 μg/ml PB, read with alamar blue, A. baumannii A329, +0.06 μg/ml polymyxin B, 2nd experiment, MIC read with alamar blue) was 1 mg/L and the MBC (A. baumannii A473 [5]; 1st experiment) was 4 mg/L (≈ 9.92 µM). The MBC (A. baumannii A473 [5]; 2nd experiment) was 8 mg/L (≈ 19.8 µM), the MBC (A. baumannii A401 [6]; 2nd experiment) was 16 mg/L (≈ 39.7 µM) and the MBC (A. baumannii A401 [6]; 1st experiment) was 4 mg/L (≈ 9.92 µM). It also gave an MBC [7, 19] of 16 mg/L (≈ 39.7 µM), an MBC [7, 20] of 8 mg/L (≈ 19.8 µM) and an MIC (A. baumannii A473 [8]; 1st experiment) of 4 mg/L (≈ 9.92 µM). The MIC (A. baumannii A473 [8]; 2nd experiment, visual reading) was 8 mg/L (≈ 19.8 µM), the MIC (Pseudomonas ssp PER-1) was 32 mg/L (≈ 79.4 µM) and the MBC (A. baumannii A489 [9]; 1st experiment) was 2 mg/L (≈ 4.96 µM). It also gave an MBC (A. baumannii A489 [9]; 2nd experiment) of 4 mg/L (≈ 9.92 µM), an MIC [10, 21] of 16 mg/L (≈ 39.7 µM) and an MIC [10, 22] of 8 mg/L (≈ 19.8 µM). The MIC ratio without/with polymyxin B (A. baumannii A472 [11]; A. baumannii A472, ratio MIC without PB to MIC + PB, PB […], 2nd experiment) was at least 1020 mg/L, the MIC (A. baumannii A472 [11]; 1st experiment) was 32 mg/L (≈ 79.4 µM) and the MIC ratio without/with polymyxin B (A. baumannii A401 [12]; A baumannii A 401, ratio MIC without PB to MIC + PB, PB 0.06 μg/ml, 2nd experiment) was 128 mg/L. For the same molecule, the MIC (A. baumannii A401 [12]; 1st experiment) was 8 mg/L (≈ 19.8 µM), the MIC (A. baumannii A401 [12]; 2nd experiment, visual reading) was 16 mg/L (≈ 39.7 µM) and the MIC (E. coli 2906) was over 32 mg/L. The MIC (P. aeruginosa 143-3-03) was 4 mg/L (≈ 9.92 µM), the MIC (A. baumannii A472 [13]) was 32 mg/L (≈ 79.4 µM) and the MBC (A. baumannii A329 [14]; 1st experiment) was 16 mg/L (≈ 39.7 µM). For the same molecule, the MBC (A. baumannii A329 [14]; 2nd experiment) was 32 mg/L (≈ 79.4 µM).
Molecule `Cc1c(-c2ccc(CN)c(F)c2)ccn2c(=O)c(C(=O)O)cc(C3CC3)c12` [Compound 4, 8-(3-fluoro-4-aminomethyl-phenyl)-1-cyclopropyl-9-methyl-4-oxo-quinolizine-3-carboxylic acid] has an MBC (A. baumannii J2; 2nd experiment) of 16 mg/L (≈ 43.7 µM), an MBC (A. baumannii J2; 1st experiment) of 4 mg/L (≈ 10.9 µM) and an MIC (P. aeruginosa 1388-3-02) of 16 mg/L (≈ 43.7 µM). The MIC [1] was 16 mg/L (≈ 43.7 µM), the MIC (Klebsiella ssp KPC-3) was 4 mg/L (≈ 10.9 µM) and the MIC (A. baumannii A489 [2]; 2nd experiment, visual reading) was 16 mg/L (≈ 43.7 µM). It also gave an MIC (A. baumannii A329 [3]) of 16 mg/L (≈ 43.7 µM), an MIC (A. baumannii A329 [4]; [17]) of 16 mg/L (≈ 43.7 µM) and an MIC (A. baumannii A329 [4]; [18]) of 16 mg/L (≈ 43.7 µM). The MBC (A. baumannii A390) was 32 mg/L (≈ 87.3 µM), the MBC (A. baumannii A473 [5]; 1st experiment) was 4 mg/L (≈ 10.9 µM) and the MBC (A. baumannii A401 [6]; 2nd experiment) was 32 mg/L (≈ 87.3 µM). The MBC (A. baumannii A401 [6]; 1st experiment) was 4 mg/L (≈ 10.9 µM), the MBC [7, 19] was 32 mg/L (≈ 87.3 µM) and the MBC [7, 20] was 16 mg/L (≈ 43.7 µM). The MBC (A. baumannii A472 [15]) was 16 mg/L (≈ 43.7 µM), the MIC (Pseudomonas ssp PER-1) was 8 mg/L (≈ 21.8 µM) and the MBC (A. baumannii A489 [9]; 1st experiment) was 4 mg/L (≈ 10.9 µM). For the same molecule, the MBC (A. baumannii A489 [9]; 2nd experiment) was 16 mg/L (≈ 43.7 µM), the MIC ([10]; Acinetobacter spp. H064200250 (OXA51), 2nd experiment, MIC read with alamar blue, read-out: MIC without PB, read with alamar blue) was 16 mg/L (≈ 43.7 µM) and the MIC [10, 21] was 32 mg/L (≈ 87.3 µM). It also gave an MIC [10, 22] of 16 mg/L (≈ 43.7 µM), an MIC (A. baumannii A472 [11]; 2nd experiment, visual reading) of 16 mg/L (≈ 43.7 µM) and an MIC (A. baumannii A401 [12]; 1st experiment) of 16 mg/L (≈ 43.7 µM). The MIC (A. baumannii A401 [12]; 2nd experiment, visual reading) was 16 mg/L (≈ 43.7 µM), the MIC ([16]; read-out: MIC range without PB 01-10-2008 n = 8, without polymyxin B, 1st experiment, 8 strains) was 2 to 32 mg/L (≈ 5.46 to 87.3 µM) and the MIC ([16]; without polymyxin B, 2nd experiment, 11 strains, read-out: MIC range without PB 14-10-2008 n = 11) was 4 to 16 mg/L (≈ 10.9 to 43.7 µM). It also gave an MIC (E. coli 2906) of 8 mg/L (≈ 21.8 µM), an MIC (P. aeruginosa 143-3-03) of 4 mg/L (≈ 10.9 µM) and an MBC (A. baumannii A329 [14]; 1st experiment) of 16 mg/L (≈ 43.7 µM). It also gave an MBC (A. baumannii A329 [14]; 2nd experiment) of 32 mg/L (≈ 87.3 µM).
